Literature values as cited in US7339052B2, “Phosphoramidite activator for oligonucleotide synthesis” (Honeywell International Inc., priority 2005, dated 2008).

For `c1ccc(CSc2nnn[nH]2)cc1` [BMT, 5-benzylmercaptotetrazole], the “maximum solubility in acetonitrile” value is listed as “about 0.33 M”.
